Results on three molecules are retold here after article PMC2719696, “Kinetics and Cellular Site of Glycolipid Loading Control the Outcome of Natural Killer T Cell Activation” (Immunity, 2009).

Molecules are shown by their SMILES.

For this data set, the target named is T1, mCD1d (Mus musculus, UniProt P11609).
T1 construct: host or cells: JAWS II (C57BL/6.Trp53-/- derived dendritic cell line)
T1 sequence (P11609 22-336): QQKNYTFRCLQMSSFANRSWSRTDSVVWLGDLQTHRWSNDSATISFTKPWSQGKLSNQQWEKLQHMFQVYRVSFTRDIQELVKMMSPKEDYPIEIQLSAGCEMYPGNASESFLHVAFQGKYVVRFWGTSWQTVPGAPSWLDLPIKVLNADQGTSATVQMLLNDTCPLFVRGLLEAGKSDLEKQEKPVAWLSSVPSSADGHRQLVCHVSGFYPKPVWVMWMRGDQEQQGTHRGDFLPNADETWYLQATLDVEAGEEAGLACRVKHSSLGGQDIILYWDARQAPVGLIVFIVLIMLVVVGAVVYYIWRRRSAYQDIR
T1 sequence (P01887 21-119 partner): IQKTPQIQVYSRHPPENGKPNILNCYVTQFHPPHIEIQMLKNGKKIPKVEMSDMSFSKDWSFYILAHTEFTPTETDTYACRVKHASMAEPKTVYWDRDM
Briefly: Confocal microscopy of L363 staining in JAWS II cells (surface and permeabilized). The conditions noted are these: for L363 surface staining of intact cells (confocal): 100 nM glycolipid, 1, 4 or 16 hr; for site of L363 staining in permeabilized cells: 1 hr incubation, co-stained for LAMP-1. It counts as cell-based. As to the method:
To visualize the kinetics and sites of mCD1d loading by αGalCer analogs in live cells, we analyzed intact JAWS II cells for surface staining with mAb L363 after 1, 4, or 16 hr of incubation with αGalCer-C26:0 or with either of two Th2 cell-type cytokine-biasing analogs (αGalCer-C20:2 or -C10:0) (Figure 4A). Strong staining of the plasma membrane was seen after 16 hr of incubation in all cases. […] To image earlier steps in glycolipid loading, we permeabilized and fixed cells prior to staining with L363 and with an antibody to the late endosomal and lysosomal marker LAMP-1 (Figure 4A). […] At 4 hr, these complexes began to colocalize with LAMP-1, and only at 16 hr could clear surface staining be seen along with the persistent intracellular staining in LAMP-1^+ compartments (Figure 4A).
Figure 4 Cell Surface versus Intracellular Loading of mCD1d with Different αGalCer Analogs (A) On the left, surface accumulation of CD1d-αGalCer complexes was studied with JAWS II cells harvested after incubation with the indicated glycolipids for 1, 4, or 16 hr and then stained without permeabilization with mAb L363 (red). Cells were then fixed, stained with DAPI for nuclei visualization (blue), and analyzed by confocal microscopy. On the right, the intracellular formation and trafficking of CD1d-αGalCer complexes were analyzed by treatment of JAWS II cells with αGalCer analogs for 1, 4, and 16 hr followed by fixation and permeabilization. The cells were stained for CD1d-αGalCer complexes (L363, red), late endosomes and lysosomes (anti-LAMP-1, green), and nuclei (DAPI, blue). Results are representative of three separate experiments. The scale bar represents 10 μm. (B) Murine iNKT cell hybridoma cells (DN3A4.1-2) were stimulated with αGalCer analogs. As APCs for these stimulations, we used A20 cells transfected with wild-type CD1d (CD1d.WT) or cytoplasmic-tail-deleted CD1d (CD1d.TD). Supernatant concentrations of IL-2 release were determined after 12 hr. IL-2 production over a range of concentrations is shown for αGalCer-C26:0 and two analogs that produce a Th2 cell-type cytokine bias (αGalCer-C20:2 and -PGB1).
JAWS II cells were incubated at 37°C with 100 nM glycolipids for various times as indicated. For surface staining, live cells were harvested and washed extensively with PBS, resuspended in PBS + 1% BSA + 0.1% NaN3, stained on ice with 10 μg/ml Alexa Fluor 647-conjugated mAb L363 for 30 min, and lastly washed extensively and fixed with 4% paraformaldehyde. Cells were washed with PBS and settled onto poly-L-lysine-coated coverslips for 30 min and mounted with ProLong Gold with DAPI mounting medium (Invitrogen). For intracellular staining, JAWS II cells grown on glass coverslips were fixed in 4% paraformaldehyde, permeabilized with 0.05% Triton X-100 for 5 min, and stained with 10 μg/ml Alexa Fluor 647-conjugated L363 and FITC-conjugated anti-LAMP-1. Coverslips were washed and mounted. Confocal images were obtained with a Leica SP2 AOBS confocal microscope (Leica Microsystems). For colocalization of αGalCer/mCD1d complexes with ganglioside GM1-enriched plasma membrane lipid rafts, JAWS II cells were incubated for 18 hr at 37°C in complete medium without or with 100 nM of glycolipids. […] We performed quantitative analysis of colocalization by selecting 20–25 random cells in each group and determining a Pearson correlation coefficient for the distribution of pixel densities for K253 or L363 fluorescence compared to cholera toxin B-specific fluorescence. […]

With `CCCCCCCCCCCCCCC(O)C(O)C(COC1OC(CO)C(O)C(O)C1O)NC(=O)CCCCCCCCC` (centres unmarked) [αGalCer-C10:0], the “L363 surface staining of intact cells (confocal)” value was “showed L363 staining at earlier time points” and the “site of L363 staining in permeabilized cells” value (“site of L363 staining” for short) is on record as “L363 staining was observed at the plasma membrane”.
`CCCCCC=CCC=CCCCCCCCCCC(=O)NC(COC1OC(CO)C(O)C(O)C1O)C(O)C(O)CCCCCCCCCCCCCC` (centres unmarked) [αGalCer-C20:2]: the “L363 surface staining of intact cells (confocal)” value is “showed L363 staining at earlier time points” and the “site of L363 staining” value is “L363 staining was observed at the plasma membrane”.
`CCCCCCCCCCCCCCCCCCCCCCCCCC(=O)NC(COC1OC(CO)C(O)C(O)C1O)C(O)C(O)CCCCCCCCCCCCCC` (centres unmarked) [αGalCer-C26:0, reference compound]: the “site of L363 staining” value was “observed only in a punctate intracellular distribution”.
